# Test results reported in patent US20160039802A1, “3-PYRIMIDIN-4-YL-OXAZOLIDIN-2-ONES AS INHIBITORS OF MUTANT IDH” (NOVARTIS AG, priority 2013, published 2016).
# Tests used:
# Mutant IDH1 R132H = biological target: T1, Mutant IDH1 R132H (Homo sapiens, UniProt O75874, R132H); assay: Mutant IDH1 biochemical assay: LC-MS detection of 2-HG; conditions: mIDH R132H […], 5 uM NADPH, 100 uM alpha-KG, 45 minutes incubation; range where run multiple times; further: mIDH R132H 0.25 nM, 5 µM NADPH
# T1 construct: His6 with PreScission site (N, cleaved yes); made in house; host or cells: E. coli Rosetta 2(DE3)
# Source text: Mutant IDH1 biochemical Sssay: LC-MS Detection of 2-HG.
# IDH1 (R132H) mutant = biological target: T2, IDH1 (R132H) mutant (Homo sapiens, UniProt O75874, R132H); assay: Fluorescence biochemical assay (NADPH oxidation); conditions: mIDH R132H 10 nM, 10 μM NADPH, 100 μM α-KG; range where run multiple times
# T2 construct: His6 with PreScission site (N, cleaved yes); made in house; host or cells: E. coli Rosetta 2(DE3)
# Procedure: The IDH1 (R132H) mutant catalyzes the reduced form of NADP+ (NADPH) and α-ketoglutarate (α-KG) to form nicotinamide adenine dinucleotide phosphate (NADP+) and R(−)-2-hydroxyglutarate (2HG). […] Reactions were monitored using the Perkin-Elmer Envision, Model 2101. […] The final reaction mixture contained 2.5% DMSO and test compounds with concentrations ranging 0.0000008-25 μM. The IDH1 (R132H) enzyme was used at a final concentration of 10 nM. Curve fitting for dose response […] determinations was done in the Helios module of the software package DAVID. The 4-parameter logistic model was used: y=min+((max−min)/1+(x/IC50)^shape)
# T1 sequence (O75874 whole entry R132H): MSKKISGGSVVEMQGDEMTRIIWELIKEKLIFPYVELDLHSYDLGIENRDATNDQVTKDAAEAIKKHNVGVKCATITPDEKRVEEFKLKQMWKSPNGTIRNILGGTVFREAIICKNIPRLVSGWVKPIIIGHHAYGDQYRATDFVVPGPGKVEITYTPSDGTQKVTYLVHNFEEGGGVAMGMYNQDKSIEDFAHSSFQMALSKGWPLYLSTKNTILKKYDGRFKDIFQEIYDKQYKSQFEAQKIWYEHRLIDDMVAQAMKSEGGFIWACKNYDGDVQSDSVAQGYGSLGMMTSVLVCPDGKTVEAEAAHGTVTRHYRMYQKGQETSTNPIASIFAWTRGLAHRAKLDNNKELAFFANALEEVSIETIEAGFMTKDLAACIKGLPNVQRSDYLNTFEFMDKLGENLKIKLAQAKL
# T2 sequence (O75874 whole entry R132H): as above
Compound,IC50 (Mutant IDH1 R132H),IC50 (IDH1 (R132H) mutant)
"C[C@H](Nc1nccc(N2C(=O)OCC2(C)C2CC2)n1)c1ccc(F)cc1 (single isomer, unassigned) [Example 45]",189 nM,235 to 253 nM
"C[C@H](Nc1nccc(N2C(=O)OCC2(C)C2CC2)n1)c1ccc(F)cc1 (single isomer, unassigned) [Example 46]",791 nM,793 to 1210 nM
"C[C@H](Nc1ncc(F)c(N2C(=O)OCC2(C)C2CC2)n1)c1ccc(CN2CCC(N(C)C)CC2)cc1F (single isomer, unassigned) [Example 57]",868 nM,290 nM
"C[C@H](Nc1ncc(F)c(N2C(=O)OCC2(C)C2CC2)n1)c1ccc(CN2CCC(N(C)C)CC2)cc1F (single isomer, unassigned) [Example 58]",2720 nM,971 nM
"C[C@H](Nc1ncc(F)c(N2C(=O)OCC2(C)C2CC2)n1)c1ccc(CN2CCC(C)(N)CC2)c(F)c1 (single isomer, unassigned) [Example 59]",922 nM,183 nM
"C[C@H](Nc1ncc(F)c(N2C(=O)OCC2(C)C2CC2)n1)c1ccc(CN2CCC(C)(N)CC2)c(F)c1 (single isomer, unassigned) [Example 60]",1520 nM,584 nM
"C[C@H](Nc1ncc(F)c(N2C(=O)OCC2(C)C2CC2)n1)c1ccc(CN2CCC(C)(N)CC2)cc1F (single isomer, unassigned) [Example 61]",696 nM,236 nM
"C[C@H](Nc1ncc(F)c(N2C(=O)OCC2(C)C2CC2)n1)c1ccc(CN2CCC(C)(N)CC2)cc1F (single isomer, unassigned) [Example 62]",1620 nM,748 nM
"CC(Nc1nccc(N2C(=O)OC[C@]2(C)C2CC2)n1)c1nc(-c2ccc(Cl)c(OC(F)(F)F)c2)no1 (single isomer, unassigned) [Example 63]",2260 nM,1890 to 2120 nM
"CC(Nc1nccc(N2C(=O)OC[C@@]2(C)C2CC2)n1)c1nc(-c2ccc(Cl)c(OC(F)(F)F)c2)no1 (single isomer, unassigned) [Example 65]",> 5000 nM,> 25000 nM
"C[C@H](Nc1nccc(N2C(=O)OC[C@]2(C)C2CC2)n1)c1ccc(CN2CCC(N(C)C)CC2)c(F)c1 [Example 30, (S)-4-cyclopropyl-3-(2-(((S)-1-(4-((4-(dimethylamino)piperidin-1-yl)methyl)-3-fluorophenyl)ethyl)amino)pyrimidin-4-yl)-4-methyloxazolidin-2-one]",211 to 271 nM,122 to 172 nM
"C[C@H](Nc1nccc(N2C(=O)OC[C@]2(C)C2CC2)n1)c1ccc(CN2CCC(C)(O)CC2)cc1F [Example 34, (S)-4-cyclopropyl-3-(2-(((S)-1-(2-fluoro-4-((4-hydroxy-4-methylpiperidin-1-yl)methyl)phenyl)ethyl)amino)pyrimidin-4-yl)-4-methyloxazolidin-2-one]",192 nM,41.8 to 53.1 nM
"C[C@H](Nc1ncc(F)c(N2C(=O)OCC2(C)C2CC2)n1)c1ccc(CN2CCC(N(C)C)CC2)c(F)c1 (stereo partly drawn) [Example 36, 4-cyclopropyl-3-(2-(((S)-1-(4-((4-(dimethylamino)piperidin-1-yl)methyl)-3-fluorophenyl)ethyl)amino)-5-fluoropyrimidin-4-yl)-4-methyloxazolidin-2-one]",963 nM,
"C[C@H](Nc1nccc(N2C(=O)OC[C@]2(C)C2CC2)n1)c1ccc(CN2CCC(N)(CO)CC2)c(F)c1 [Example 42, (S)-3-(2-(((S)-1-(4-((4-amino-4-(hydroxymethyl)piperidin-1-yl)methyl)-3-fluorophenyl)ethyl)amino)pyrimidin-4-yl)-4-cyclopropyl-4-methyloxazolidin-2-one]",217 nM,

# The next compounds have a lower IC50 (Mutant IDH1 R132H) than those just listed; values first:
IC50 (Mutant IDH1 R132H),IC50 (IDH1 (R132H) mutant),Compound
20.2 to 26 nM,62.9 nM,"CC(Nc1nccc(N2C(=O)OC[C@]2(C)C2CC2)n1)c1nc(-c2ccc(Cl)cc2)no1 (single isomer, unassigned) [Example 50]"
22.7 to 35.4 nM,36.2 nM,"Cc1cc(-c2cnc(C(C)Nc3nccc(N4C(=O)OC[C@]4(C)C4CC4)n3)nc2)ccc1F (single isomer, unassigned) [Example 53]"
25.2 nM,10.3 to 42.4 nM,"CC(Nc1nccc(N2C(=O)OC[C@]2(C)C2CC2)n1)c1nc(-c2ccc(Cl)c(OC(F)(F)F)c2)no1 (single isomer, unassigned) [Example 64]"
85 nM,34.3 to 72.5 nM,"CC(Nc1nccc(N2C(=O)OC[C@@]2(C)C2CC2)n1)c1nc(-c2ccc(Cl)c(OC(F)(F)F)c2)no1 (single isomer, unassigned) [Example 66]"
< 22.9 nM,26.9 nM,"C[C@H](Nc1nc(Cl)cc(N2C(=O)OC[C@@H]2C2CC2)n1)c1nc(-c2ccc(Cl)cc2)no1 [Example 3, (S)-3-(6-chloro-2-((S)-1-(3-(4-chlorophenyl)-1,2,4-oxadiazol-5-yl)ethylamino)pyrimidin-4-yl)-4-cyclopropyloxazolidin-2-one]"
8.45 nM,17.4 nM,"Cc1cc(N2C(=O)OC[C@@H]2C2CC2)nc(N[C@@H](C)c2cn(-c3ccc(Cl)cc3)cn2)n1 [Example 7, (S)-3-(2-(((S)-1-(1-(4-chlorophenyl)-1H-imidazol-4-yl)ethyl)amino)-6-methylpyrimidin-4-yl)-4-cyclopropyloxazolidin-2-one]"
47.1 nM,71.3 nM,"Cc1cc(N2C(=O)OC[C@@H]2C2CC2)nc(N[C@@H](C)c2nc(-c3ccc(Cl)cc3)no2)n1 [Example 8, (S)-3-(2-(((S)-1-(3-(4-chlorophenyl)-1,2,4-oxadiazol-5-yl)ethyl)amino)-6-methylpyrimidin-4-yl)-4-cyclopropyloxazolidin-2-one]"
43.7 nM,105 nM,"Cc1cc(N2C(=O)OC[C@@H]2C2CC2)nc(N[C@@H](C)c2cnc(-c3ccc(Cl)cc3)s2)n1 [Example 9, (S)-3-(2-(((S)-1-(2-(4-chlorophenyl)thiazol-5-yl)ethyl)amino)-6-methylpyrimidin-4-yl)-4-cyclopropyloxazolidin-2-one]"
22.8 nM,71.6 nM,"Cc1cc(N2C(=O)OC[C@@H]2C2CC2)nc(N[C@@H](C)c2cc(-c3ccc(Cl)cc3)on2)n1 [Example 10, (S)-3-(2-(((S)-1-(5-(4-chlorophenyl)isoxazol-3-yl)ethyl)amino)-6-methylpyrimidin-4-yl)-4-cyclopropyloxazolidin-2-one]"
76.7 nM,35.9 nM,"Cc1cc(N2C(=O)OC[C@@H]2C2CC2)nc(N[C@@H](C)c2cn(-c3ccc(Cl)cc3)nn2)n1 [Example 11, (S)-3-(2-(((S)-1-(1-(4-chlorophenyl)-1H-1,2,3-triazol-4-yl)ethyl)amino)-6-methylpyrimidin-4-yl)-4-cyclopropyloxazolidin-2-one]"
15.8 nM,23.8 nM,"C[C@H](Nc1nc(Cl)cc(N2C(=O)OC[C@@H]2C2CC2)n1)c1cc(F)c(-c2cnn(C)c2)cc1F [Example 18, (S)-3-(6-chloro-2-(((S)-1-(2,5-difluoro-4-(1-methyl-1H-pyrazol-4-yl)phenyl)ethyl)amino)pyrimidin-4-yl)-4-cyclopropyl oxazolidin-2-one]"
57.2 nM,44.3 nM,"C[C@H](Nc1nc(Cl)cc(N2C(=O)OC[C@@H]2C2CC2)n1)c1ccc(-c2cnn(C)c2)cc1F [Example 19, (S)-3-(6-chloro-2-(((S)-1-(2-fluoro-4-(1-methyl-1H-pyrazol-4-yl)phenyl)ethyl)amino)pyrimidin-4-yl)-4-cyclopropyloxazolidin-2-one]"
83.9 nM,218 nM,"C[C@H](Nc1nc(Cl)cc(N2C(=O)OC[C@@H]2C2CC2)n1)c1ccc(C(C)(C)F)cc1F [Example 20, (S)-3-(6-chloro-2-(((S)-1-(2-fluoro-4-(2-fluoropropan-2-yl)phenyl)ethyl)amino)pyrimidin-4-yl)-4-cyclopropyloxazolidin-2-one]"
20 nM,7.27 nM,"C[C@H](Nc1nc(Cl)cc(N2C(=O)OC[C@@H]2C2CC2)n1)c1cn(-c2ccc(F)cc2)cn1 [Example 27, (S)-3-(6-chloro-2-(((S)-1-(1-(4-fluorophenyl)-1H-imidazol-4-yl)ethyl)amino)pyrimidin-4-yl)-4-cyclopropyloxazolidin-2-one]"
175 nM,109 to 115 nM,"C[C@H](Nc1nccc(N2C(=O)OC[C@]2(C)C2CC2)n1)c1ccc(CN2CCC(N(C)C)CC2)cc1F [Example 33, (S)-4-cyclopropyl-3-(2-(((S)-1-(4-((4-(dimethylamino)piperidin-1-yl)methyl)-2-fluorophenyl)ethyl)amino)pyrimidin-4-yl)-4-methyloxazolidin-2-one]"
28.6 nM,,"C[C@H](Nc1nccc(N2C(=O)OC[C@]2(C)C2CC2)n1)c1ccc(CN2CCC(C)(N(C)C)CC2)c(F)c1 [Example 37, (S)-4-cyclopropyl-3-(2-(((S)-1-(4-((4-(dimethylamino)-4-methylpiperidin-1-yl)methyl)-3-fluorophenyl)ethyl)amino)pyrimidin-4-yl)-4-methyloxazolidin-2-one]"
151 nM,,"C[C@H](Nc1nccc(N2C(=O)OC[C@]2(C)C2CC2)n1)c1ccc(CN2CCC(C)(N)CC2)c(F)c1 [Example 43, (S)-3-(2-(((S)-1-(4-((4-amino-4-methylpiperidin-1-yl)methyl)-3-fluorophenyl)ethyl)amino)pyrimidin-4-yl)-4-cyclopropyl-4-methyloxazolidin-2-one]"
